The source of these data is patent publication US8097654B2, “Radiolabeled 3-[3-(benzoyl-amido)benzyloxy]aspartic acid derivative and method of producing the same” (Suntory Holdings Limited, priority 2004, dated 2012).

Structures are written as SMILES.

The target of one experiment is T1, EAAT4 (Homo sapiens, UniProt P48664).
T1 construct: expressed in transfected cells; host or cells: COS-1 cells (membrane preparation)
T1 sequence (P48664 1-564): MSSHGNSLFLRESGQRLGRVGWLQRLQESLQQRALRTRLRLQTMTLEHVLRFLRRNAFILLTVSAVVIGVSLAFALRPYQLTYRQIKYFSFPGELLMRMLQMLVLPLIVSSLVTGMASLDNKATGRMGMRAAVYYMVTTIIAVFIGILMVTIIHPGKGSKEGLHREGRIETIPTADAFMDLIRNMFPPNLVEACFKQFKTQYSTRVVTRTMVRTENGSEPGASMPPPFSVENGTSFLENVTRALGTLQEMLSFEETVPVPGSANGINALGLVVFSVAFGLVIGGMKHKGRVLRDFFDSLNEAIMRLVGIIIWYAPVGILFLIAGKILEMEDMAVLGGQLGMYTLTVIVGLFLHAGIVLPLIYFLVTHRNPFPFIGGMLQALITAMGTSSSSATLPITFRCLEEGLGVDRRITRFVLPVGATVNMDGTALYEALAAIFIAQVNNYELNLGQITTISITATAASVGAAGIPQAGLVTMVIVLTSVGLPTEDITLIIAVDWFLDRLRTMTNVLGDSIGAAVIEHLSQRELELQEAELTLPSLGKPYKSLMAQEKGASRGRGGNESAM
Kind of experiment: Saturation binding / Scatchard analysis, EAAT4 expressed on COS-1 cells. The following applies: COS-1 cell membrane preparation. On the procedure: (§1) About 20 ml of a medium contained in a T-flask (150 cm^2) was inoculated with COS-1 cells expressing EAAT which were then incubated therein until they reached confluence. After aspiration of the medium, the cells were washed with about 10 ml of phosphate buffered saline (PBS). After adding 4 ml of 0.25% trypsin/1 mM EDTA and allowing to stand for 5 minutes, 6 ml of the medium was added and the cells were collected into a 50 ml tube. Then they were centrifuged at 1200 rpm for 2 minutes and the supernatant was aspirated. The residue was thoroughly homogenized in a binding buffer (50 mM Tris-HCl (pH 7.4), 120 mM NaCl, 5 mM KCl, 2.5 mM CaCl2, 1 mM MgCl2) with the use of a Polytron homogenizer on ice. The homogenate was centrifuged at 30,000×g at 4° C. for 20 minutes. […]
(§2) Then the reaction was ceased by filtering the mixture through a GF/C filter (Whatman) having been soaked in a 0.1% poly-L-lysine hydrobromide solution for an hour followed by washing with 20 mM Tris buffer. After drying the filter, a solid scintillator MeltiLex A (PerkinElmer) was melted-on and the radioactivity was measured with a β-counter. The radioactivity of the sample free from TFB-TBOA was referred to as the total binding amount, while the radioactivity of the sample containing TFB-TBOA was referred to as the nonspecific binding amount. Then the difference was calculated as the specific binding amount.

In the next experiment the target is T2, EAAT5 (Homo sapiens, UniProt O00341).
T2 construct: expressed in transfected cells; host or cells: COS-1 cells (membrane preparation)
T2 sequence (O00341 whole entry, species assumed): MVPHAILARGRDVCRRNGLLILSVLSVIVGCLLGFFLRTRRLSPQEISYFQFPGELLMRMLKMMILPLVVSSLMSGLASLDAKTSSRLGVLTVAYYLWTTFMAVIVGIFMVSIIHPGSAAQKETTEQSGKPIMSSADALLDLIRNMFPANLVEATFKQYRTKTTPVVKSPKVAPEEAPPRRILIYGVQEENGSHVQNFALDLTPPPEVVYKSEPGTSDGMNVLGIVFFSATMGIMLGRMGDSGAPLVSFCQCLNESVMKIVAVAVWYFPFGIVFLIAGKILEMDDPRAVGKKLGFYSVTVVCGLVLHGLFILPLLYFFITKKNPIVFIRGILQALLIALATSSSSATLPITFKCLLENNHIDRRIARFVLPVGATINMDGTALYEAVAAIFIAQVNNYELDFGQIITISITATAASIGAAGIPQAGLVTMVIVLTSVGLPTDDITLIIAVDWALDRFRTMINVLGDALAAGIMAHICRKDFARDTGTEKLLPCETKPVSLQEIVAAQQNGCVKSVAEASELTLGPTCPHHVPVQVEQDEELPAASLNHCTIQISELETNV
Kind of experiment: Saturation binding / Scatchard analysis, EAAT5 expressed on COS-1 cells. To be noted: COS-1 cell membrane preparation. On the procedure:
as §1, §2

In experiment [1] the target is T3, EAAT2 (Homo sapiens, UniProt P43004). Kind of experiment: Saturation binding / Scatchard analysis, EAAT2 expressed on COS-1 cells. To be noted: COS-1 cell membrane preparation. Also on record: expressed in transfected cells; host or cells: COS-1 cells (membrane preparation). As for the experimental part: as §1, §2
T3 sequence (P43004 whole entry): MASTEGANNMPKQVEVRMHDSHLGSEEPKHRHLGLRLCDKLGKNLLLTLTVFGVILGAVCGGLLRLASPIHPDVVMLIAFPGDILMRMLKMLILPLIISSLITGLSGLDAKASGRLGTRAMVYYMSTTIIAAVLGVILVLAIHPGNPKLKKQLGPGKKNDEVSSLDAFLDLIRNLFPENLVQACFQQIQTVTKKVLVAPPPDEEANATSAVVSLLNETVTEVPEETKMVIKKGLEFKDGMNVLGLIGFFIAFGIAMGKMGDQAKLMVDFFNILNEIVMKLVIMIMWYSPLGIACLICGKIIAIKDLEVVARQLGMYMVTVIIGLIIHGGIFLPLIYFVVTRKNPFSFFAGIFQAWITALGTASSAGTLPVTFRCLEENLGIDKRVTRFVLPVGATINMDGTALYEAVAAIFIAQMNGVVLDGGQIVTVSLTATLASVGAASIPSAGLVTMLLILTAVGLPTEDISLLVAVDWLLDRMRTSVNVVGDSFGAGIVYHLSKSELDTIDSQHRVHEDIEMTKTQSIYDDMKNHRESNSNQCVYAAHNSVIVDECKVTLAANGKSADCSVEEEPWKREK
In the next experiment the target is T4, human EAAT3 (Homo sapiens, UniProt P43005).
T4 construct: expressed in transfected cells
T4 sequence (P43005 1-524): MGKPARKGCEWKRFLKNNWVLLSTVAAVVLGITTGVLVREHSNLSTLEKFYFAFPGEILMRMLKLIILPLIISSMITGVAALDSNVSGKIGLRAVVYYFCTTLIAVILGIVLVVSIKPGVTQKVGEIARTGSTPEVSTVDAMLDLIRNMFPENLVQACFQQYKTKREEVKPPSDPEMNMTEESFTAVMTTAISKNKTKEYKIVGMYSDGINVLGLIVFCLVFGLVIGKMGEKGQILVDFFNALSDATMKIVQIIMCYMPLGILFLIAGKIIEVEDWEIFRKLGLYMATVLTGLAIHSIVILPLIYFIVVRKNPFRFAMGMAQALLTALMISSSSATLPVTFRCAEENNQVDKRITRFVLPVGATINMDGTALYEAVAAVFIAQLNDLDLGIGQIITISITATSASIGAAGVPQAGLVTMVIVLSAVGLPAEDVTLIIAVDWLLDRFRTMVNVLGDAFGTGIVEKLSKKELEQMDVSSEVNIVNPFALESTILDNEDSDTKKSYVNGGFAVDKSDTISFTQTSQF
Kind of experiment: Inhibition of [14C]-glutamic acid uptake by EAAT3 expressed in MDCK or COS-1 cells. In kind it is cell-based. The following applies: 1 μM L-[14C]-glutamic acid, 12 minutes. As for the experimental part: (§3) In accordance with a known method (Shimamoto, K. et al., Mol. Pharmacol. 53, 195-201, 1998; Bioorg. Med. Chem. Lett. 10, 2407-2410, 2000), the inhibitory activity was assayed as the ability to inhibit the uptake of [^14C]-glutamic acid by human EAAT2 and EAAT3 stably expressed in MDCK (Madin-Darby canine kidney) cells or transiently expressed in COS-1 cells. The glutamate uptake activity was assayed by incubating a mixture of 1 μM of L-[^14C]-glutamic acid with a sample compound at a predetermined concentration for 12 minutes, lysing the cells and then measuring the radioactivity incorporated into the cells with a liquid scintillator. The amount of uptake was expressed in percentage by referring the amount of uptake in the absence of a test compound (i.e., the buffer alone) as 100% and referring the amount of uptake in a sodium-free solution as 0%.

Experiment [2] concerns the target T3, EAAT2. The experiment can be described thus: Inhibition of [14C]-glutamic acid uptake by EAAT2 expressed in MDCK or COS-1 cells. The experiment is classed as cell-based. Details: expressed in transfected cells. To be noted: 1 μM L-[14C]-glutamic acid, 12 minutes. As for the experimental part: as §3

Consider `[3H]CC([3H])c1ccc(C(=O)Nc2cccc(CO[C@H](C(=O)O)[C@H](N)C(=O)O)c2)cc1` (stereo partly drawn) [(^3H)Et-BzA-TBOA], for which the values for the Kd on EAAT4, at EAAT5 and on EAAT2 [1] were 0.013 µM, 0.03 µM and 0.026 µM, respectively.
As for `N[C@H](C(=O)O)[C@H](OCc1cccc(NC(=O)c2ccc(I)cc2)c1)C(=O)O` [I-BzA-TBOA, (2S,3S)-3-[3-(4-iodobenzoylamino)benzyloxy]aspartic acid], the figures for the half-maximal inhibitory concentration (IC50) on human EAAT3 and against EAAT2 [2] were 0.056 ± 0.0018 µM and 0.0048 ± 0.00032 µM, respectively.
The like results for `NC(C(=O)O)C(OCc1ccccc1)C(=O)O` [L-TBOA, threo-β-benzyloxyaspartic acid, reference compound] were, in that order, 1.3 ± 0.12 µM and 1.3 ± 0.12 µM.
The like results for `N[C@H](C(=O)O)[C@H](OCc1cccc(NC(=O)c2ccc(C(F)(F)F)cc2)c1)C(=O)O` [TFB-TBOA, reference compound] were, in that order, 0.028 ± 0.0018 µM and 0.0019 ± 0.0001 µM.
